Results reported in patent US9453226B2, “Protection of cells from Alu-RNA-induced degeneration and inhibitors for protecting cells” (UNIVERSITY OF KENTUCKY RESEARCH FOUNDATION, priority 2011, dated 2016).
Each block holds one compound with its values, some of them ahead of it.

Legend:
phagosomal ROS = experiment: Phagosomal ROS in human RPE cells (Fc OXYBURST Green); format: cell-based
Description: Cellular ROS production was assessed using the ROS-specific probe 2′7′-dichlorodihydrofluorescin diacetate (H2DCFDA, BioChemica, Fluka). Mitochondrial ROS production was assessed using MitoSOX™ Red (Invitrogen). Sub-confluent human RPE cells were transfected with pNull or pAlu. After 24 h cells were loaded for 10 min at 37° C. with 10 μM H2DCFDA or MitoSOX™ Red (Invitrogen) mitochondrial superoxide indicator for live-cell imaging and washed twice with PBS. For H2DCFDA, fluorescence was recorded in 96-well plate using with a Synergy 4 reader (Biotek) using a FITC filter (excitation 485 nm, emission 538 nm). To visualize respiring mitochondria for colocalization with the mitochondrial ROS signal, after PBS wash cells were incubated with MitoTracker Deep Red™ (Invitrogen) for 30 min at 37° C. and then washed twice with PBS. The fluorescent signals were detected using Leica SP-5 or Zeiss Axio Observer Z1 microscopes. Phagosomal ROS production was assessed using the Fc-OXYBURST Green™ assay (Invitrogen). Sub-confluent human RPE cells were transfected with pNull or pAlu, or treated with PMA (0.5 μg/ml; Sigma-Aldrich). […] The total fluorescence from the cells was measured immediately after adding Fc-OXYBURST Green™ with a Synergy 4 reader (Biotek) using FITC filter (excitation 485 nm, emission 538 nm).

Caspase-8 = Caspase-8 activation in the RPE of wild-type mice (fluorometric assay); format: in vivo; details: subretinal injection
Description: RPE tissues were homogenized in lysis buffer (10 mM Tris base, pH 7.4, 150 mM NaCl, 1 mM EDTA, 1 mM EGTA, 1% Triton X-100, 0.5% NP-40, protease and phosphatase inhibitor cocktail (Roche)). Protein concentrations were determined using a Bradford assay kit (Bio-Rad) with bovine serum albumin as a standard. The […] activity was measured using Caspase-8 Fluorimetric Assay (R&D) in according to the manufacturer's instructions.

RPE [1] = experiment: RPE degeneration after subretinal delivery in mice (wild-type and deficient strains); format: in vivo
Description: (§1) Subretinal injection and imaging. Subretinal injections (1 μL) were performed using a Pico-Injector (PLI-100, Harvard Apparatus). Plasmids were transfected in vivo using 10% Neuroporter (Genlantis). Fundus imaging was performed on a TRC-50 IX camera (Topcon) linked to a digital imaging system (Sony). RPE flat mounts were immunolabeled using antibodies against zonula occludens-1 (Invitrogen).
All animal experiments were approved by institutional review committees and in accordance with the Association for Research in Vision and Ophthalmology Statement for the Use of Animals in Ophthalmic and Visual Research. Wild-type C57BL/6J, Cybb^−/−, Tlr3^−1−, Tlr4^−/− (C57BL/10ScNJ), Trif^−/− (Ticam1^Lps2), Ifng^−/−, Ifngr1^−/−, Il1r1^−1−, Il18r1^−1−, Myd88^f/f, and Dicer1^f/f mice were purchased from The Jackson Laboratory. Casp1^−1−, Nbp3^−/−, and Pycard^−/− mice have been previously described (Kanneganti et al., 2006). Unc93b1 mutant mice were generously provided by B. A. Beutler via K. Fitzgerald. Myd88^−/− and Tlr7^−/− mice were generously provided by S. Akira via T. Hawn and D. T. Golenbock. Mda5^−/− mice were generously provided by M. Colonna. […] Mavs^−/− mice were generously provided by Z. Chen via K. Fitzgerald. For all procedures, anesthesia was achieved by intraperitoneal injection of 100 mg/kg ketamine hydrochloride (Ft. Dodge Animal Health) and 10 mg/kg xylazine (Phoenix Scientific), and pupils were dilated with topical 1% tropicamide (Alcon Laboratories).
(§2) Subretinal injections (1 μL) in mice were performed using a Pico-Injector (PLI-100, Harvard Apparatus). In vivo transfection of plasmids coding for two different Alu sequences (pAlu) or empty control vector (pNull) (Bennett et al., 2008; Kaneko et al., 2011; Shaikh et al., 1997) was achieved using 10% Neuroporter (Genlantis). AAV1-BEST1-Cre (Alexander and Hauswirth, 2008) or AAV1-BEST1-GFP were injected at 1.0×10^11 pfu/mL and in vitro transcribed Alu RNA was injected at 0.3 mg/mL.
Bone marrow transplantation was used to create Myd88^−/− chimera mice wherein the genetic deficiency of Myd88 was confined to either circulating cells (Myd88^−/− →WT) or nonhematopoietic tissue (WT→Myd88^−/−). Briefly, bone marrows were collected from femur and tibia of congenic WT or Myd88^−/− donor mice by flushing with RPMI1640. After two washing steps, cells were resuspended in RPMI1640. 1×10^7 cells in 150 μL of RPMI1640 were injected into the tail vein of irradiated […] mice. Two chimera groups were generated: WT→Myd88^−/− (WT cells into Myd88^−/− mice) and Myd88→WT (Myd88 cells into WT mice). 2 months after bone marrow transfer, mice were injected subretinally with Alu RNA, vehicle, pAlu, or pNull, and monitored for RPE degeneration 7 days later. […]

RPE [2] = experiment: pAlu-induced RPE degeneration in wild-type mice, inhibitors given intravitreously; format: in vivo; details: WT mice, subretinal pAlu, inhibitor intravitreous, fundus photographs and ZO-1 flat mounts
Description: as §1
Retinal photographs of dilated mouse eyes were taken with a TRC-50 IX camera (Topcon) linked to a digital imaging system (Sony).
Human eyes fixed in 2-4% paraformaldehyde were prepared as eyecups, cryoprotected in 30% sucrose, embedded in optimal cutting temperature compound (Tissue-Tek OCT; Sakura Finetek), and cryosectioned into 10 μm sections. Depigmentation was achieved using 0.25% potassium permanganate and 0.1% oxalic acid. Immunohistochemical staining was performed with the rabbit antibody against NLRP3 (1:100, Sigma Aldrich) or rabbit antibody against Caspase-1 (prediluted, AbCam). Isotype IgG was substituted for the primary antibody to assess the specificity of the staining. Bound antibody was detected with biotin-conjugated secondary antibodies, followed by incubation with ABC reagent and visualized by Vector Blue (Vector Laboratories). Levamisole (Vector Laboratories) was used to block endogenous alkaline phosphatase activity. Slides were washed in PBS, counterstained with neutral red (Fisher Scientific), rinsed with deionized water, air dried, and then mounted in Vectamount (Vector Laboratories). Fluorescent labeling of human tissue was performed with the rabbit antibody against PYCARD (1:50, Clone N-15, Santa Cruz Biotechnology) Immunolabeling was visualized by fluorescently conjugated anti-rabbit secondary antibody (Invitrogen). Tissue autofluorescence was quenched by incubating the sections in 0.3% Sudan black (Fisher Scientific). Sections were mounted in Vectashield with DAPI (Vector Laboratories). Mouse RPE/choroid flat mounts were fixed with 4% paraformaldehyde or 100% methanol, stained with rabbit antibodies against human zonula occludens-1 (1:100, Invitrogen) and visualized with Alexa594 (Invitrogen). All images were obtained using the Leica SP-5 or Zeiss Axio Observer Z1 microscopes.
as §2
siRNAs formulated in siRNA buffer (20 mM KCL, 0.2 mM MgCl2 in HEPES buffer at pH 7.5; Dharmacon) or phosphate buffered saline (PBS; Sigma-Aldrich); the TLR4 antagonist Ultra Pure Rhodobacter sphaeroides LPS (LPS-RS, InvivoGen), a peptide inhibitor of MyD88 homodimerization IMG-2005 (IMGENEX), control inhibitor (IMGENEX), recombinant IL-18 (Medical & Biological Laboratories), neutralizing rat antibodies against mouse IL-1β (IMGENEX), neutralizing rat antibodies against mouse IL-18 (Medical & Biological Laboratories), isotype control IgGs (R&D Systems or eBioscience as appropriate), Caspase-1 inhibitor Z-WEHD-FMK (R&D Systems), Caspase control inhibitor Z-FA-FMK (R&D Systems), DPI (Enzo Life Sciences), Mito-TEMPO (Enzo Life Sciences), MitoQ and dTPP (both adsorbed to cyclodextrin and provided by M.P. Murphy, MRC Mitochondrial Biology Unit), and gp91ds-tat and scrambled gp91 ds-tat (both Anaspec), were dissolved in phosphate buffered saline (PBS; Sigma-Aldrich) or dimethyl sulfoxide (DMSO; Sigma-Aldrich), and injected into the vitreous humor in a total volume of 1 μL with a 33-gauge Exmire microsyringe (Ito Corporation). […] As a control, Luc siRNA-chol (17+2 nt) was used with identical dosages. […]

MyD88 = MyD88 knockdown in mouse RPE cells; format: cell-based; details: compared to control siRNA
Description: Total RNA was extracted from tissues or cells using Trizol reagent (Invitrogen) according to manufacturer's recommendations, DNase treated and reverse transcribed (QuantiTect, Qiagen). The RT products (cDNA) were amplified by real-time quantitative PCR (Applied Biosystems 7900 HT Fast Real-Time PCR system) with Power SYBR green Master Mix. […] For negative controls, no RT products were used as templates in the QPCR and verified by the absence of gel-detected bands. Relative expressions of target genes were determined by the 2^−ΔΔCt method.
Tissues or cells were homogenized in lysis buffer (10 mM Tris base, pH 7.4, 150 mM NaCl, 1 mM EDTA, 1 mM EGTA, 1% Triton X-100, 0.5% NP-40, protease and phosphatase inhibitor cocktail (Roche)). Protein concentrations were determined using a Bradford assay kit (Bio-Rad) with bovine serum albumin as a standard. […] Protein loading was assessed by immunoblotting using an anti-Vinculin antibody (1:1,000; Sigma-Aldrich). […]

Compound: CCCCCCCCCCCCCC(=O)O[C@@H]1[C@@H](C)[C@@]2(O)[C@@H](C=C(CO)C[C@]3(O)C(=O)C(C)=C[C@@H]23)[C@@H]2C(C)(C)[C@]12OC(C)=O [PMA, phorbol myristate acetate]
- phagosomal ROS (phagosomal ROS): induced phagosomal ROS

- activation of Caspase-8 (Caspase-8; listed as IL-18): induced activation of caspase-8
- activation of Caspase-8 (Caspase-8; listed as recombinant IL-18): induced activation of Caspase-8
Compound: Recombinant IL-18: recombinant IL-18 (Medical & Biological Laboratories)
- RPE degeneration after subretinal delivery (RPE [1]; CD95−/− (Fas lpr) mice): did not induce RPE degeneration
- RPE degeneration after subretinal delivery (RPE [1]; Casp1−/− mice): induced RPE degeneration
- RPE degeneration after subretinal delivery (RPE [1]; Faslg−/− (Fasl gld) mice): did not induce RPE degeneration
- RPE degeneration after subretinal delivery (RPE [1]; WT mice): induced RPE degeneration

Compound: 5′-CAGAGCAAGGAAUGUGAdTdT-3′ [cholesterol-conjugated Myd88 siRNA]
- pAlu-induced RPE degeneration (RPE [2]): inhibited
- pAlu-induced RPE degeneration (RPE [2]; listed as MyD88-targeting short interfering RNA): inhibited RPE degeneration
- target gene and protein abundance (MyD88) (MyD88): reduces
